US20230090255A1, “MAGL INHIBITOR, PREPARATION METHOD THEREFOR AND USE THEREOF” (LUNAN PHARMACEUTICAL GROUP CORPORATION, priority 2019, published 2023)

Experiments:
[1] = target: T1, recombinant human protein MAGL (Homo sapiens, UniProt Q99685); assay: MAGL enzyme analysis (Cayman MAGL inhibitor screening kit); format: biochemical; details: 4-nitrophenylacetic acid substrate, absorbance 410 nm, read-out: MAGLXIC50
T1 construct: purchased Cayman
T1 sequence (Q99685 1-303): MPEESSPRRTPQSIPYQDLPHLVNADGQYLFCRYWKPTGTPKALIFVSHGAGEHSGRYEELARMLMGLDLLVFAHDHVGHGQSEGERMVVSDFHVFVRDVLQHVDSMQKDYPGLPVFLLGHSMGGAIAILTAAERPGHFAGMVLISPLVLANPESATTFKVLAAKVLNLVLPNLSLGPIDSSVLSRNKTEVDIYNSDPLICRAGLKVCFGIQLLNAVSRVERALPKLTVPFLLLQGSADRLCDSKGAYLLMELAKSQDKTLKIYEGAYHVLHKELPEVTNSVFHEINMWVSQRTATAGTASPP

[2] = system: mice forced swimming test; assay: Mice forced swimming test; format: in vivo, ICR mice; details: forced swimming, 6 min; 5 mg/kg intragastric once per day 10 d, 1 h after final administration
Method: Male ICR mice having a body weight of 18-22 g. The animals were active on a schedule of normal illumination for 12 h and in the dark for 12 h. Environmental temperature and relative humidity were relatively kept for 22±1° C. and 55±5%.
There were 7 groups of laboratory mice, 10 pieces each group, set as a control group (normal saline), a positive control group (fluoxetine hydrochloride capsule, 5 mg/kg), 5 MAGLZ-II series of administration treatment groups: MAGLZ-II-06, MAGLZ-II-07, MAGLZ-II-11, MAGLZ-II-17 and MAGLZ-II-18, respectively, with an administration concentration of 5 mg/kg.
All medicaments were used once per day via intragastric administration with a dose of 20 mL/kg (body weight), lasting for 10 d. 1 h later after the final administration, the detection of animal behaviors was started.
Mice forced swimming test was performed according to the method established by Porsolt (Porsolt R D. Behavioural despair in mice: A primary screening test for antidepressants[J]. Arch. Int. Pharmacolodyn. 1977, 229). […] Each mouse was judged as still when stopped struggling, kept suspension in water and only made necessary movement to keep the head above the water.
All data are shown by x̅±SD, and the comparison among groups is analyzed by one-way variance.

[3] = system: mice with inflammatory pain; assay: Pain threshold of mice with inflammatory pain (complete Freund's adjuvant); format: in vivo, SD mice; details: for pain threshold of the mice with inflammatory pain, in words: compared with the model group; for Pain threshold: complete Freund's adjuvant paw model
Method: […] (180±20) g were injected with a complete Freund’s adjuvant (50 µL/piece) at the right rear plantar of mice, and mice in the control group were injected with the corresponding volume of 0.5% sodium carboxymethylcellulose to establish a paw edema inflammatory pain model. After modeling, the mice were administered for 7 d continuously, and administered intragastrically once per day. Pain thresholds (s) of the mice were respectively determined on the 1st, 3rd and 7th day before administration and after modeling at different periods of time.
Grouping and administration were the same as those of Example 40.

[4] = system: irritable bowel syndrome rats; assay: Irritable bowel syndrome rats induced by early maternal separation; format: in vivo, SD rats; parameters: AWR scoring: scale not given here; details: for Colon 5-HT / Serum 5-HT / AWR scoring: IBS rats; for 5-HT level in colon and serum, in words / AWR scoring, in words: compared with the model group
Method: The newborn SD male rats were separated from the mother rat in lactation period for 3 h every day on the 2nd to the 21st day after the birth of the newborn SD rats, namely, the mother rat in lactation period was taken out of the cage at 8:30 a.m., and then the newborn rats were removed from the initial cage and put to another separate cage, then the cage was transferred to an adjacent room, then the newborn rats were returned to the initial cage 3 h later, namely, at 11:30 such that the newborn rats and the mother rat got together; the newborn rats were weaned on the 22nd day after birth and separated from the initial cage on the 30th day, grouped on the 60th day, and administered, 20 d in total.
Intragastric administration was performed within the administration period once a day with continuous administration for 20 d.
Test indicators: abdominal withdrawal reflex (AWR); test method: rats were fasted 18 h before the experiment and drank water freely, and narcotized with diethyl ether; then an air sac coated with paraffin oil was inserted into the rats’ colorectum for 4.0 cm, and a catheter outside the anus was fixed at the root of the rat tail with an adhesive tape, and connected with an injection syringe and a sphygmomanometer via three links. The rats were put to an organic glass inspection box (20 cmx12 cm×9 cm), after the rats were awake and fully adapted to the environment for 30 min, the experiment was started. 20, 40 and 60 mm Hg of pressure were respectively applied on the rats, and continuous expansion was performed for 20 s each time with a stimulus interval of 4 min; each pressure was performed for 3 times repeatedly for AWR scoring.
At the end of the experiment, the animals were dissected and weighed, and narcotized to take blood, then the content of 5-HT in serum was determined by high performance liquid chromatography. […] slightly with 0.5% sodium carboxymethylcellulose, and then sucked dry with a filter paper, and placed into a cryogenic tube, and preserved at -20° C. for further use, […] chromatography.

[5] = high dose 30 mg/kg ig once per day, 0 d
[6] = high dose 30 mg/kg ig once per day, 1 d
[7] = high dose 30 mg/kg ig once per day, 3 d
[8] = high dose 30 mg/kg ig once per day, 7 d
[9] = low dose 7.5 mg/kg ig once per day, 0 d
[10] = low dose 7.5 mg/kg ig once per day, 1 d
[11] = low dose 7.5 mg/kg ig once per day, 3 d
[12] = low dose 7.5 mg/kg ig once per day, 7 d
[13] = middle dose 15 mg/kg ig once per day, 0 d
[14] = middle dose 15 mg/kg ig once per day, 1 d
[15] = middle dose 15 mg/kg ig once per day, 3 d
[16] = middle dose 15 mg/kg ig once per day, 7 d
[17] = high dose 30 mg/kg ig 20 d, 20 mm Hg
[18] = high dose 30 mg/kg ig 20 d, 40 mm Hg
[19] = high dose 30 mg/kg ig 20 d, 60 mm Hg
[20] = low dose 7.5 mg/kg ig 20 d, 20 mm Hg
[21] = low dose 7.5 mg/kg ig 20 d, 40 mm Hg
[22] = low dose 7.5 mg/kg ig 20 d, 60 mm Hg
[23] = middle dose 15 mg/kg ig 20 d, 20 mm Hg
[24] = middle dose 15 mg/kg ig 20 d, 40 mm Hg
[25] = middle dose 15 mg/kg ig 20 d, 60 mm Hg

IC50 [1] [nM]	Compound	Accumulated immobility time [2] [S]	pain threshold of the mice with inflammatory pain, in words [3]	Pain threshold [3, 5]	Pain threshold [3, 6]	Pain threshold [3, 7]	Pain threshold [3, 8]	Pain threshold [3, 9]	Pain threshold [3, 10]	Pain threshold [3, 11]	Pain threshold [3, 12]	Pain threshold [3, 13]	Pain threshold [3, 14]	Pain threshold [3, 15]	Pain threshold [3, 16]	Colon 5-HT ([4]; high dose 30 mg/kg ig 20 d)	Serum 5-HT ([4]; high dose 30 mg/kg ig 20 d)	AWR scoring [4, 17]	AWR scoring [4, 18]	AWR scoring [4, 19]	also measured
96	O=C(Nc1cccc(Cl)c1)C1CCN(C(=O)c2cccc(O)c2)CC1 [MAGLZ-II-11]	73.57±27.28	significantly extend	12.88 ± 2.27 s	7.99±0.90^∗∗∗ s	9.88±1.34^∗∗∗ s	11.26±1.82^∗∗∗ s	12.94 ± 2.41 s	7.55±1.29^∗∗∗ s	9.00±0.73^∗∗∗ s	10.26±1.08^∗∗∗ s	12.80 ± 2.27 s	7.73±1.10^∗∗∗ s	9.47±0.79^∗∗∗ s	10.93±1.62^∗∗∗ s	12.00±2.93^∗∗∗ µg/mg	23.82±6.34^∗∗∗ µg/ml	1.39±0.30^∗∗ ∗	1.92±0.33^∗∗∗	2.86±0.26^∗∗∗	Colon 5-HT ([4]; low dose 7.5 mg/kg ig 20 d): 16.24±2.34^∗∗ µg/mg; Serum 5-HT ([4]; low dose 7.5 mg/kg ig 20 d): 31.75±5.33^∗∗ µg/ml; AWR scoring [4, 20]: 2.50±0.38^∗; AWR scoring [4, 21]: 3.00±0.49^∗∗; AWR scoring [4, 22]: 3.60±0.22^∗∗; Colon 5-HT ([4]; middle dose 15 mg/kg ig 20 d): 14.33±2.10^∗∗∗ µg/mg; Serum 5-HT ([4]; middle dose 15 mg/kg ig 20 d): 29.47±4.91^∗∗∗ µg/ml; AWR scoring [4, 23]: 2.02±0.57^∗∗; AWR scoring [4, 24]: 2.42±0.41^∗∗∗; AWR scoring [4, 25]: 3.03±0.37^∗∗∗; 5-HT level in colon and serum, in words [4]: significantly decrease; AWR scoring, in words [4]: significantly decrease
670	O=C(Nc1cccc(Cl)c1)C1CCN(C(=O)c2cc3ccccc3[nH]2)CC1 [MAGLZ-II-18]	81.71±38.12	significantly extend	12.85±2.26^∗∗ s	6.95±0.85^∗∗ s	8.49±1.15^∗∗ s	9.62±0.93^∗∗ s	12.73±2.43^∗ s	6.39±0.91^∗ s	8.12±1.29^∗ s	9.16±1.17^∗ s	12.86±2.25^∗∗ s	6.62±0.69^∗∗ s	8.24±0.73^∗∗ s	9.51±1.15^∗∗ s	14.33±2.10^∗∗∗ µg/mg	30.86±5.28^∗∗∗ µg/ml	1.87±0.36^∗∗ ∗	2.6±0.54^∗∗∗	3.09±0.34^∗∗∗	Colon 5-HT ([4]; low dose 7.5 mg/kg ig 20 d): 21.91 ± 2.46 µg/mg; Serum 5-HT ([4]; low dose 7.5 mg/kg ig 20 d): 35.73 ± 3.32 µg/mL; AWR scoring [4, 20]: 2.59±0.33; AWR scoring [4, 21]: 3.26±0.39; AWR scoring [4, 22]: 3.65±0.23^∗; Colon 5-HT ([4]; middle dose 15 mg/kg ig 20 d): 14.89±3.19^∗∗ µg/mg; Serum 5-HT ([4]; middle dose 15 mg/kg ig 20 d): 29.12±7.05^∗∗ µg/ml; AWR scoring [4, 23]: 2.29±0.36^∗∗; AWR scoring [4, 24]: 3.01±0.40^∗∗; AWR scoring [4, 25]: 3.3±0.45^∗∗; 5-HT level in colon and serum, in words [4]: significantly decrease; AWR scoring, in words [4]: significantly decrease
